In patent US12433293B2, “Herbicidal compositions” (BAYER AKTIENGESELLSCHAFT, priority 2019, dated 2025):

System: harmful plant species
Assay: Specific trial examples: synergistic effect (Δ) of herbicidal binary compositions applied by the post-emergence method, observed vs Colby expected value (Tables 3.1-3.4)
Format: in vivo

O=C(O)CNCP(=O)(O)O [(B7.5) Glyphosate]
Herbicidal action 28 DAT [%] against Centaurea cyanus (50 g a.i./ha, post-emergence): 10%
Herbicidal action 28 DAT [%] against Phalaris minor (50 g a.i./ha, post-emergence): 30%
Herbicidal action 21 DAT [%] against Amaranthus palmeri (50 g a.i./ha, post-emergence (Z26)): 60%
Herbicidal action 14 DAT [%] against Centaurea cyanus (150 g a.i./ha, post-emergence): 50%
Herbicidal action 28 DAT [%] against Bromus sterilis (150 g a.i./ha, post-emergence): 80%
Herbicidal action 28 DAT [%] against Centaurea cyanus (150 g a.i./ha, post-emergence): 40%
Herbicidal action 28 DAT [%] against Lolium rigidum (150 g a.i./ha, post-emergence): 30%
Herbicidal action 28 DAT [%] against Matricaria inodora (150 g a.i./ha, post-emergence): 70%
Herbicidal action 21 DAT [%] against Kochia Scoparia (150 g a.i./ha, post-emergence (Z26)): 20%
Herbicidal action 14 DAT [%] against Centaurea cyanus (450 g a.i./ha, post-emergence): 60%
Herbicidal action 28 DAT [%] against Bromus sterilis (450 g a.i./ha, post-emergence): 90%
Herbicidal action 28 DAT [%] against Centaurea cyanus (450 g a.i./ha, post-emergence): 60%
Herbicidal action 28 DAT [%] against Lolium rigidum (resistant biotype) (450 g a.i./ha, post-emergence): 70%
Herbicidal action 28 DAT [%] against Poa annua L. (450 g a.i./ha, post-emergence): 85%
Herbicidal action 16 DAT [%] against Richardia scabra (720 g a.i./ha, post-emergence): 62%
Herbicidal action 42 DAT [%] against Geranium dissectum (720 g a.i./ha, post-emergence): 50%
Herbicidal action 42 DAT [%] against Malva pusilla (720 g a.i./ha, post-emergence): 0%
Herbicidal action 45 DAT [%] against Amaranthus tuberculatus (720 g a.i./ha, post-emergence): 15%
Herbicidal action 45 DAT [%] against Ipomoea ssp (720 g a.i./ha, post-emergence): 0%
Herbicidal action 45 DAT [%] against Lysimachia nummularia (720 g a.i./ha, post-emergence): 7%

O=C(Nc1ccc(F)cc1F)c1cccnc1Oc1cccc(C(F)(F)F)c1 [(B2.18) Diflufenican]
Herbicidal action 14 DAT [%] against Alopecurus myosuroides (30 g a.i./ha, post-emergence): 20%
Herbicidal action 14 DAT [%] against Phalaris minor (30 g a.i./ha, post-emergence): 20%
Herbicidal action 21 DAT [%] against Abutilon theophrasti (30 g a.i./ha, post-emergence): 20%
Herbicidal action 21 DAT [%] against Ipomoea purpurea (30 g a.i./ha, post-emergence): 30%
Herbicidal action 21 DAT [%] against Kochia Scoparia (30 g a.i./ha, post-emergence): 10%
Herbicidal action 21 DAT [%] against Setaria viridis (30 g a.i./ha, post-emergence): 10%
Herbicidal action 28 DAT [%] against Phalaris minor (30 g a.i./ha, post-emergence): 10%
Herbicidal action 28 DAT [%] against Poa annua L. (30 g a.i./ha, post-emergence): 10%
Herbicidal action 28 DAT [%] against Veronica hederifolia (30 g a.i./ha, post-emergence): 20%
Herbicidal action 14 DAT [%] against Alopecurus myosuroides (90 g a.i./ha, post-emergence): 20%
Herbicidal action 14 DAT [%] against Lolium rigidum (90 g a.i./ha, post-emergence): 20%
Herbicidal action 14 DAT [%] against Poa annua L. (90 g a.i./ha, post-emergence): 20%
Herbicidal action 21 DAT [%] against Abutilon theophrasti (90 g a.i./ha, post-emergence): 20%
Herbicidal action 21 DAT [%] against Kochia Scoparia (90 g a.i./ha, post-emergence): 20%
Herbicidal action 21 DAT [%] against Setaria viridis (90 g a.i./ha, post-emergence): 20%
Herbicidal action 28 DAT [%] against Phalaris minor (90 g a.i./ha, post-emergence): 10%
Herbicidal action 28 DAT [%] against Poa annua L. (90 g a.i./ha, post-emergence): 20%
Herbicidal action 28 DAT [%] against Veronica hederifolia (90 g a.i./ha, post-emergence): 20%
Herbicidal action 14 DAT [%] against Lolium rigidum (270 g a.i./ha, post-emergence): 20%
Herbicidal action 14 DAT [%] against Matricaria inodora (270 g a.i./ha, post-emergence): 30%
Herbicidal action 14 DAT [%] against Phalaris minor (270 g a.i./ha, post-emergence): 30%
Herbicidal action 14 DAT [%] against Veronica hederifolia (270 g a.i./ha, post-emergence): 30%
Herbicidal action 21 DAT [%] against Abutilon theophrasti (270 g a.i./ha, post-emergence): 30%
Herbicidal action 21 DAT [%] against Ipomoea purpurea (270 g a.i./ha, post-emergence): 60%
Herbicidal action 21 DAT [%] against Kochia Scoparia (270 g a.i./ha, post-emergence): 25%
Herbicidal action 28 DAT [%] against Alopecurus myosuroides (270 g a.i./ha, post-emergence): 20%
Herbicidal action 28 DAT [%] against Lolium rigidum (270 g a.i./ha, post-emergence): 30%
Herbicidal action 28 DAT [%] against Matricaria inodora (270 g a.i./ha, post-emergence): 20%
Herbicidal action 28 DAT [%] against Phalaris minor (270 g a.i./ha, post-emergence): 30%
Herbicidal action 28 DAT [%] against Poa annua L. (270 g a.i./ha, post-emergence): 30%
Herbicidal action 28 DAT [%] against Veronica hederifolia (270 g a.i./ha, post-emergence): 30%
